According to patent US7235691B2, “Crystalline forms of modafinil” (priority 2000, dated 2007):

How the values were obtained:
[1] = Heating of crystalline forms, analysed by x-ray powder diffraction; type: physicochemical; conditions: for crystalline form after heating in an oven: about 30 minutes at about 100° C.; for chemical decomposition on heating: heating/drying at about 100° C.
Method: X-ray diffraction data were acquired using a Philips powder X-ray diffractometer, Goniometer model 1050/70 at a scanning speed of 2° per minute, with a CUKα radiation of λ=1.5418 Å. The sample was gently ground and dusted over a zero background quartz plate to give a thin layer.
Forms V and VI convert into modafinil Form I upon gentle heating to about 80° C. or above.
Modafinil Form I may be separated from solvents conventionally by filtering or decanting and then drying.
By Heating Modafinil Forms V or VI A small aliquot of Modafinil Forms V and VI are heated separately, for about 30 minutes, in an oven at about 100° C.

[2] = type: physicochemical; conditions: for crystalline form after suspension in distilled water: distilled water pH about 5.9, stirred about 24 hours at about 37° C.; for crystalline form conversion when suspended in water: time and temperature not stated

SMILES	crystalline form after heating in an oven [1]	chemical decomposition on heating [1]	crystalline form after suspension in distilled water [2]	crystalline form conversion when suspended in water [2]	other results
NC(=O)C[S+]([O-])C(c1ccccc1)c1ccccc1 (racemic) [Form V, (±) 2-[(Diphenylmethyl)sulfinyl]acetamide]	determined to be Form I	without significant decomposition			
NC(=O)C[S+]([O-])C(c1ccccc1)c1ccccc1 (racemic) [Form I, (±) 2-[(Diphenylmethyl)sulfinyl]acetamide, reference compound]		without undergoing significant chemical decomposition			crystalline form after drying at elevated temperature ([1]; dried at a temperature as high as 100° C.): without converting to another crystalline or amorphous form
NC(=O)C[S+]([O-])C(c1ccccc1)c1ccccc1 (racemic) [Form IV, (±) 2-[(Diphenylmethyl)sulfinyl]acetamide]			determined to be modafinil Form I		
NC(=O)C[S+]([O-])C(c1ccccc1)c1ccccc1 (racemic) [Form III, (±) 2-[(Diphenylmethyl)sulfinyl]acetamide]			determined to be modafinil Form II	converts into modafinil Form II	
NC(=O)C[S+]([O-])C(c1ccccc1)c1ccccc1 (racemic) [Form VI, (±) 2-[(Diphenylmethyl)sulfinyl]acetamide]	determined to be Form I	without significant decomposition			
NC(=O)C[S+]([O-])C(c1ccccc1)c1ccccc1 (racemic) [Form II, (±) 2-[(Diphenylmethyl)sulfinyl]acetamide]				converted into Form I modafinil	
